Columns and labels:
[1] = tested on: p-ERK in PANC 04.03 tumor-bearing mice; assay: Tumor Pharmacodynamic Assay (p-ERK inhibition in PANC 04.03 tumors); format: in vivo; settings: Mus musculus; PANC 04.03 tumor-bearing female athymic nude mice; single oral dose 100 mg/kg; tumors harvested 2 hr later; relative to vehicle group
Method: Tumor Pharmacodynamic Assays
Inhibitor pharmacodynamic effects were assessed in PANC 04.03 tumor-bearing mice. PANC 04.03 tumor cells (5.0E+06 cells) were injected subcutaneously into the flank of female athymic nude mice in a mixture with Matrigel (BD Bioscience). Mice received a single oral dose of either vehicle or inhibitor (100 mg/kg) when the average tumor size reached -300-600 mm^3 (n=3/group) and harvested 2 hours later. Tumor samples were collected, snap frozen, and processed for analysis by pulverizing with a cryoPREP® Dry Impactor (Covaris). Pulverized samples were resuspended in RIPA lysis buffer containing protease and phosphatase inhibitors and homogenized. Cleared lysates were analyzed using phospho-ERK1/2 and total ERK1/2 whole cell lysate kits (Meso Scale Discovery) according to the manufacturer's protocol. Phospho-ERK1/2 signal was normalized to total ERK1/2 signal for a given sample, and percent inhibition of p-ERK was calculated relative to the vehicle group.

[2] = target: GDP-bound KRAS protein (aa 1-169), containing both G12D and C118A amino acid substitutions (Homo sapiens (Human), UniProt P01116, C118A/G12D); assay: KRAS G12D Coupled Nucleotide Exchange Assay; format: biochemical; settings: read-out: KRAS G12D Coupled Exchange IC50
SW620 cells = assay: SW620 CTG Assay (CellTiter-Glo cell viability); format: cell-based, human; settings: Homo sapiens, SW-620; SW620, 72 h; third value of the cell; read-out: G12D/C/V Cell Proliferation CTG (72 h) SW620
Outline: (§1)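 Human pancreatic AsPC-1 or colon SW620 cells in RPMI 1640 with 10% FBS, seeded overnight, then exposed to serially diluted compound for 72 h at 37 °C. CellTiter-Glo luminescence normalized to DMSO control; IC50 from a 4-parameter logistic model.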

[3] = target: His-tagged KRAS G12D protein (Homo sapiens (Human), UniProt P01116, G12D); assay: KRAS G12D TR-FRET Assay; format: binding; settings: read-out: KRAS G12D Binding IC50
Outline: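 His-tagged KRAS G12D (diluted to 20 nM in pH 7.4 HEPES buffer with 10 mM MgCl2 and 10 μM GDP) was preincubated with titrated compound for 30 min at room temperature. Biotinylated KRPep-2d peptide (diluted to 20 nM) was then added for 1 h, and displacement was monitored by TR-FRET.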

AsPC-1 cells = assay: AsPC-1 CTG Assay (CellTiter-Glo cell viability); format: cell-based, human; settings: Homo sapiens, ASPC1, 72 h, AsPC-1, 72 h; first value of the cell; read-out: G12D/C/V Cell Proliferation CTG (72 h) AsPC-1
Outline: as §1

[4] = tested on: Phosphorylation of ERK1/2 in AsPC-1 cells; assay: Phospho-ERK1/2 MSD Assay; format: cell-based, human; settings: Homo sapiens, ASPC1, 2 h, read-out: 2 h p-ERK (AsPC-1 cells), IC50
Outline: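 Read-out: MSD electrochemiluminescent detection of phosphorylated ERK1/2 in whole-cell lysates, fitted to a 4-parameter logistic curve for IC50. Prior to lysis, AsPC-1 cells (25,000 per well) received a 2 h compound dose-response at 37 °C.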

MIA PaCa-2 cells = assay: MIA PaCa-2 CTG Assay (CellTiter-Glo cell viability); format: cell-based, human; settings: Homo sapiens; Mia PaCa-2, 72 h; second value of the cell; read-out: G12D/C/V Cell Proliferation CTG (72 h) Mia PaCa-2
Outline: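 Human pancreatic carcinoma cells in RPMI 1640 with 10% FBS, seeded at 1.67E+04 cells/mL and left overnight, were treated with serially diluted compound for 72 h at 37° C, 5% CO2. Viability was read by CellTiter-Glo luminescence normalized to DMSO; IC50 came from a 4-parameter logistic fit.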

Sequence of GDP-bound KRAS protein (aa 1-169), containing both G12D and C118A amino acid substitutions (P01116 other isoform, or with tags, fused parts or gaps G12D/C118A): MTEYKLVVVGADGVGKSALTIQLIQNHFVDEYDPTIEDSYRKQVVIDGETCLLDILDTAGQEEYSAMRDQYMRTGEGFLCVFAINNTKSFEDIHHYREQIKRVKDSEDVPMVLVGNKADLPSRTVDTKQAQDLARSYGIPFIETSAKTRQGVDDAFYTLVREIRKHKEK
Sequence of His-tagged KRAS G12D protein (P01116 other isoform, or with tags, fused parts or gaps G12D): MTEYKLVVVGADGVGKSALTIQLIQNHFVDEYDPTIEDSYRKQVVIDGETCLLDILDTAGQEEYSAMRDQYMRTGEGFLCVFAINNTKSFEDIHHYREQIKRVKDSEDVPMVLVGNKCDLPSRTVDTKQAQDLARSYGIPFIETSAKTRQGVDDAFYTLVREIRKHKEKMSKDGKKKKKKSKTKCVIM

Row | SMILES | inhibition in vivo at 100 mg/kg [1] [%] | IC50 [2] [nM] | IC50 (SW620 cells) [nM] | IC50 [3] [nM] | IC50 (AsPC-1 cells) [nM] | IC50 [4] [nM] | IC50 (MIA PaCa-2 cells) [nM]
1 | C[C@@]12CCCN(C1)c1nc(OC[C@@]34CCCN3C[C@H](F)C4)nc3c(F)c(c(F)cc13)-c1cc(O)cc3ccc(F)c(c13)CCCC(=O)N2 [Example 15, (15R)-3,22,31-Trifluoro-8-(((2R,7aS)-2-fluorotetrahydro-1H-pyrrolo[1,2-a]pyrrol-7a(5H)-yl)methoxy)-27-hydroxy-15-methyl-7,9,11,16-tetraazahexacyclo[19.7.1.1˜2,6˜.1˜11,15˜.0˜5,10˜.0˜25,29˜]hentriaconta-1(28),2(31),3,5,7,9,21,23,25(29),26-decaen-17-one bis(2,2,2-trifluoroacetate)] | 0 | 3 | 80 | 4 | 141 | 19 | 
2 | O=C1COCCCc2c(Cl)cc3[nH]ncc3c2-c2ncc3c(nc(OC[C@@]45CCCN4C[C@H](F)C5)nc3c2F)N2CC[C@H]3CCN1[C@H]3C2 [Example 168, (29S,33R)-18-chloro-34-fluoro-4-(((2R,7aS)-2-fluorotetrahydro-1H-pyrrolo[1,2-a]pyrrol-7a(5H)-yl)methoxy)-23-oxa-1,3,5,9,14,15,26-heptaazaheptacyclo[24.5.2.1~6,10~.0~2,7~.0~11,19~.0~12,16~.0~29,33~]tetratriaconta-2,4,6,8,10(34),11,13,16,18-nonaen-25-one] | 65 | 1 | 3 | 3 | 10 | 1.3 | 
3 | CN1CCC[C@H]1COc1nc2c3cnc(c(F)c3n1)-c1c(c(Cl)cc3[nH]ncc13)CCCOC(=O)O[C@]1(C)COCCN2C1 [Example 181, (26S)-18-chloro-32-fluoro-26-methyl-4-(((2S)-1-methyl-2-pyrrolidinyl)methoxy)-23,25,28-trioxa-1,3,5,9,14,15-hexaazahexacyclo[24.4.1.1~6,10~.0~2,7~.0~11,19~.0~12,16~]dotriaconta-2,4,6,8,10(32),11,13,16,18-nonaen-24-one] | 65 | 3 | 8 | 6 |  | 18.8 | 10
4 | C[C@@]12COCCN(C1)c1nc(OCC34CCCN3CCC4)nc3c(F)c(ncc13)-c1c(c(Cl)cc3[nH]ncc13)CCCOC(=O)O2 [Example 209, (26S)-18-chloro-32-fluoro-26-methyl-4-(tetrahydro-1H-pyrrolo[1,2-a]pyrrol-7a(5H)-ylmethoxy)-23,25,28-trioxa-1,3,5,9,14,15-hexaazahexacyclo[24.4.1.1~6,10~.0~2,7~.0~11,19~.0~12,16~]dotriaconta-2,4,6,8,10(32),11,13,16,18-nonaen-24-one] | 63 | 3 | 3 | 5 | 3 | 3.9 | 
5 | O[C@@H]1c2ncc(o2)CCc2c(Cl)cc3[nH]ncc3c2-c2ncc3c(nc(OC[C@@]45CCCN4C[C@H](F)C5)nc3c2F)N2CCC[C@@H]1C2 [Example 233] | 23 | 3 | 1 | 4 | 2 | 1 | 
6 | O=C1OCCc2c(Cl)cc3[nH]ncc3c2-c2ncc3c(nc(OC[C@@]45CCCN4C[C@H](F)C5)nc3c2F)N2CCO[C@]3(C2)C[C@H](C3)O1 [Example 248, (1R,3R)-10-chloro-32-fluoro-24-(((2R,7aS)-2-fluorotetrahydro-1H-pyrrolo[1,2-a]pyrrol-7a(5H)-yl)methoxy)-4,6,30-trioxa-13,14,19,23,25,27-hexaazaheptacyclo[25.3.1.1~1,3~.1~18,22~.0~9,17~.0~12,16~.0~21,26~]tritriaconta-9,11,14,16,18(32),19,21,23,25-nonaen-5-one] | 85 | 2 |  | 4 | 13 | 7.8 | 7
